Test system: HOK-16B cells
Assay: Competition of soluble peptides for HOK-16B cell adhesion to rLG3-coated plates
Type: cell-based, human
Conditions: HOK-16B cells preincubated 30 min with 100 μg/ml peptide, control without peptide = 100%
Method: To identify the receptor of the HOK-16B cells for rLG3 protein and peptide P4, 5 μg/ml of mAbs to different types of integrins or 5 mM EDTA were preincubated individually with HOK-16B cells in 0.5 ml incubation solution (2×10^5 cells/ml) for 30 min at 37° C. The preincubated cells were then transferred onto plates precoated with either 25 μg/ml of rLG3 protein or 10 μg/well of peptide P4 and incubated for 1 h at 37° C. Attached cells were then quantified by the cell adhesion assay described above in the Experimental Example 2, and cell adhesion activity inhibition rate were measured.
Accordingly, the inventors examined the ability of peptide P4 to compete for cell adhesion activity to rLG3 domain by the method of Experimental Example 4. First, the purified rLG3 proteins (25 μg/well) were coated onto 24-well plates. HOK-16B cells were preincubated with the various peptides (100 μg/ml) or without the peptide for 30 min at 37° C. The preincubated cells were then added to rLG3-coated plates and cultured for 1 h in serum-free medium. The unbound cells were washed off and the adherent cells were fixed and stained with crystal violet. The average adhesion activity of the control cultures (HOK-16B cells preincubated without peptide) was considered 100%, the results are expressed as mean ±SD of the four independent experiments.

Sequence: PPFLMLLKGSTR [peptide P4]
- inhibition of cell adhesion to rLG3: approximately 51%

From patent US7517654B2, “Peptide and a derivative thereof promoting cell adhesion and spreading” (Seoul National University Industry Foundation, priority 2004, dated 2009)
